From paper PMC5503199 (Molecular microbiology, 2009)
Values joined by “and” are separate entries in the source; they are usually repeats but may differ in a detail not shown here. Equal values may be shown once. Read-outs that look alike come from different tables or passages of the source.

Tests used:
BetX with CbcWV = target: T1, BetX with CbcWV (Pseudomonas aeruginosa, UniProt Q9HZ04); assay: Competitive uptake, MKH13 expressing cbcWV and betX; format: cell-based; settings: pNcbcWV, pT-PA3236, SBP BetX, [^14C]betaine 10 μM, competitor 1 mM
T1 sequence (Q9HZ04 26-285): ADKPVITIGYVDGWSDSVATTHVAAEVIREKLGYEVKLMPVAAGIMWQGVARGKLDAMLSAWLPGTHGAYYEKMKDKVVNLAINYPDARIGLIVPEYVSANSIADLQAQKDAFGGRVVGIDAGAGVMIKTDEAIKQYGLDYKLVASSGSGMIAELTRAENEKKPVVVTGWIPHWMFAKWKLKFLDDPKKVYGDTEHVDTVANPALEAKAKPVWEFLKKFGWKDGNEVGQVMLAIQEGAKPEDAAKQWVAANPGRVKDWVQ
T1 sequence (Q9HTI7 1-279 partner): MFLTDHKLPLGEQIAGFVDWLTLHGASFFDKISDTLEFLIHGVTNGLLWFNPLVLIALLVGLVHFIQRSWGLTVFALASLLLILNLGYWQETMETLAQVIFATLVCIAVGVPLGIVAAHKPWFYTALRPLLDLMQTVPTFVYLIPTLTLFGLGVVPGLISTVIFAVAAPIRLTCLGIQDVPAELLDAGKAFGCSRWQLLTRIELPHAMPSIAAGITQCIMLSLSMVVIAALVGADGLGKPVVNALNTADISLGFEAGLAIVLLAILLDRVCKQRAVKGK
T1 sequence (Q9HTI8 1-392 partner): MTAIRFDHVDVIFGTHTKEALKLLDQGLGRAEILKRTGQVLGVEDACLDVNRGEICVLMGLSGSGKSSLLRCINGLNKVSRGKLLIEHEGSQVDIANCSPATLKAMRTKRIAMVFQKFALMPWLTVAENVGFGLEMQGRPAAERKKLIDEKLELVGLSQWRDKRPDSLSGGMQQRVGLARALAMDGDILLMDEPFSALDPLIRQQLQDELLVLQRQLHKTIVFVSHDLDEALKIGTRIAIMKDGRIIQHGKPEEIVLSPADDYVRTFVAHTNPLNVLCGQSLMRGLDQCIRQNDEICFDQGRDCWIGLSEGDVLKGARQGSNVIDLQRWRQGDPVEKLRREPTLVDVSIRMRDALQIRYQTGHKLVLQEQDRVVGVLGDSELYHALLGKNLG

CaiX with CbcWV = format: cell-based, Pseudomonas aeruginosa; settings: MKH13; pNcbcWV, pT-PA5388; SBP CaiX; [^14C]carnitine 10 μM; competitor 1 mM
CbcX and CaiX with CbcWV = format: cell-based, Pseudomonas aeruginosa; settings: MKH13, pNcbcXWV, pT-PA5388, SBPs CbcX/CaiX, competitor 1 mM
CbcX with CbcWV = CbcX with CbcWV (Pseudomonas aeruginosa, UniProt Q9HTI6); assay: Competitive uptake, MKH13 expressing cbcXWV; format: cell-based
ChoXWV = target: T2, ChoXWV (Sinorhizobium meliloti, UniProt Q92N37); assay: Competitive uptake, MKH13 expressing choXWV; format: cell-based; settings: pNchoXWV, SBP ChoX, [^14C]choline 10 μM, competitor 1 mM
T2 sequence (Q92N37 28-318): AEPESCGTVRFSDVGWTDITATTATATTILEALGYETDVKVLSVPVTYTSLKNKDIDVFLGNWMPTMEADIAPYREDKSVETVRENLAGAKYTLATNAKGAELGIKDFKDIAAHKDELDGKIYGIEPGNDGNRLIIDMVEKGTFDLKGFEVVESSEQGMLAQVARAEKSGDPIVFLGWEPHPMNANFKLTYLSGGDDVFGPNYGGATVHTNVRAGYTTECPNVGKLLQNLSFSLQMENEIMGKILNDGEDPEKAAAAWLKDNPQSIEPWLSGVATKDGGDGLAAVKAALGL
T2 sequence (Q92N36 1-281 partner): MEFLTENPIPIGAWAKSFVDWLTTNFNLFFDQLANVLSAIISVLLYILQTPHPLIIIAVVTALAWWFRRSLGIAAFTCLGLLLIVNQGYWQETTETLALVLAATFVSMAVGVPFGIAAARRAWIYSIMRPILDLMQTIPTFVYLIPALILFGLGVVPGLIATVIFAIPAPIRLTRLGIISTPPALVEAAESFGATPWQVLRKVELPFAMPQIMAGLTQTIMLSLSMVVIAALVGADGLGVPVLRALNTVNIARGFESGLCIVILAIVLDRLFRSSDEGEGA
T2 sequence (Q92N35 1-349 partner): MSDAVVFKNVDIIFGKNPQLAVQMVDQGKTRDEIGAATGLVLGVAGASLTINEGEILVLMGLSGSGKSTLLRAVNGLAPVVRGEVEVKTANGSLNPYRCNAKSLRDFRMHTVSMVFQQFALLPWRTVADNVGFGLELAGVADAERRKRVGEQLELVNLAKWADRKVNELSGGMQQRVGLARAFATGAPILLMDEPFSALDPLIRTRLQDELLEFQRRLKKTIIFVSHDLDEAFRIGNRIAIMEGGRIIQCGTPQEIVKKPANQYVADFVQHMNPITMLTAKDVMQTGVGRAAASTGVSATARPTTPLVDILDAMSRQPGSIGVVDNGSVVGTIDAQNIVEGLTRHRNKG

[1] = substrate: C[N+](C)(C)C[C@H](O)CC(=O)[O-]; assay: cells, lysate or membranes; settings: other: PA5378::tn, pNcbcWV; SBP CaiXPAO1; mean (SE), n = 4
[2] = substrate: C[N+](C)(C)CC(=O)O; assay: cells, lysate or membranes; settings: mean (SE), n = 4
[3] = substrate: C[N+](C)(C)CCO; assay: cells, lysate or membranes; settings: mean (SE), n = 4
[4] = other: MKH13, pNcbcXWV, SBP CbcX, Michaelis–Menten fit

CNCC(=O)O [MM, monomethylglycine]
% inhibition of uptake of substrate by unlabelled competitor (BetX with CbcWV): −13% | % inhibition of uptake of substrate by unlabelled competitor (CaiX with CbcWV): 0% | % inhibition of uptake of substrate by unlabelled competitor (CbcX and CaiX with CbcWV; [^14C]betaine 10 μM): 3% | % inhibition of uptake of substrate by unlabelled competitor (CbcX and CaiX with CbcWV; [^14C]choline 10 μM): 2% | % inhibition of uptake of substrate by unlabelled competitor (CbcX with CbcWV): −3% and 2% | % inhibition of uptake of substrate by unlabelled competitor (ChoXWV): −4%

CC(=O)OCC[N+](C)(C)C [AC, acetylcholine]
% inhibition of uptake of substrate by unlabelled competitor (ChoXWV): 88%

CN(C)CC(=O)O [DM, dimethylglycine]
% inhibition of uptake of substrate by unlabelled competitor (BetX with CbcWV): 56% | % inhibition of uptake of substrate by unlabelled competitor (CaiX with CbcWV): 2% | % inhibition of uptake of substrate by unlabelled competitor (CbcX and CaiX with CbcWV; [^14C]betaine 10 μM): −4% | % inhibition of uptake of substrate by unlabelled competitor (CbcX and CaiX with CbcWV; [^14C]choline 10 μM): −8% | % inhibition of uptake of substrate by unlabelled competitor (CbcX with CbcWV): 4% | % inhibition of uptake of substrate by unlabelled competitor (CbcX with CbcWV; MKH13, pNcbcXWV, SBP CbcX, [^14C]betaine 10 μM, competitor 1 mM): −5%

C[N+](C)(C)CCOP(=O)(O)O [PC, phosphorylcholine]
% inhibition of uptake of substrate by unlabelled competitor (CbcX with CbcWV; MKH13, pNcbcXWV, SBP CbcX, [^14C]choline 10 μM, competitor 1 mM): 1% | % inhibition of uptake of substrate by unlabelled competitor (ChoXWV): 5%

B1: CbcWV-CaiX (Pseudomonas aeruginosa PAO1) (protein)
chain: AEPEQCRTVRLGTVNWTDVVASSAVAEALLDGLGYQVKQTSASQQIVLAGLADKQLDLFLGYWQPTMQPVARPYLDKGRIEVIEPPTLADAQSTYAVPSYVAEGGLKTFADIARFKDKLGGRIYAIEPGSGSNRITRKMIDDNRFGLKGFQLVESSEAGMLTAVKRAIKRKQWVVFFGWKPHPMNLQIDMTYLTGSEDVFGPDEGAATVSTMTAAGYQAQCGNVARLLHNLRFSSAQVSQVMAPILDRTQPLDAARQWLKANPEPLKAWLDGVSTFDGKDGLAALQASLK
Km [1]: 24 μM and 24.2 (8.3) μM

B2: CbcX with CbcWV (Pseudomonas aeruginosa PAO1) (protein)
chain: AEPESCASVRFADVGWTDITVTTAVTRQVLESLGYKTKVNLLSVPVTYRSLANNDLDVFLGNWMPTMTNDIKQYAEKGTVETLRANLEGAKYTLAVPQYVYDGGLRSFADIAKFSDKLGNKIYGIEPGNDGNRVAQSMIDKNAFELGKFKLVESSEAGMLSQVQRAIRRNQWVVFLGWEPHPMNTRFQMKYLEGGDDFFGPNYGGATIYTNVRKGYAQECANVGQLLKNLSFTLEMENKLMDAVLNENKKPEEAAKAWLKDHPEQLDAWLAGVTTRDGQPAAAAAKLAFAK
Km [2, 4]: 24.2 (2.4) μM | Vmax [2, 4]: 11.6 (0.6) nmol min^-1 | Km [3, 4]: 2.6 (0.66) μM

B3: ChoXWV (Sinorhizobium meliloti 1021) (protein)
chain: T2 sequence (Q92N37 28-318)
Km ([3]; other: MKH13, pNchoXWV, SBP ChoX): 1.8 (0.36) μM

B4: BetX with CbcWV (Pseudomonas aeruginosa PAO1) (protein)
chain: T1 sequence (Q9HZ04 26-285)
Km ([2]; other: MKH13, pNcbcWV + pTPA3236, SBP BetX): 0.6 (0.16) μM
